Here are results for one compound from ChEMBL document CHEMBL4024798.

A short description of series [1]: Apparent permeability from basolateral to apical side in human Caco2 cells at 2 uM after 2 hrs by LC-MS/MS analysis. Format: ADME, cell-based. To be noted: caco-2, 2 h. (Caco-2 cells form a polarised layer with tight junctions and transporters.)
Series [2] is described as follows: Apparent permeability from apical to basolateral side in human Caco2 cells at 2 uM after 2 hrs by LC-MS/MS analysis. The settings on record: caco-2, 2 h. Format: ADME, cell-based.

SMILES strings stand for the structures.

The Papp is a coefficient for how fast a substance crosses the barrier. Turning to `OC12CC3CC(C1)CC(NCc1cc(C4CC4)on1)(C3)C2`, the Papp amounted to 28.33 ×10⁻⁶ cm/s in series [1] and 27.57 ×10⁻⁶ cm/s in series [2].
